The values below come from article PMC4864329, “In vitro and in vivo efficacy, toxicity, bio-distribution and resistance selection of a novel antibacterial drug candidate” (Scientific Reports, 2016).

In data set [1] the test system is P. aeruginosa PAO1. Kind of data set: Sepsis model in neutropenic BALB/c mice, survival. It counts as in vivo, Pseudomonas aeruginosa. The settings on record: PAO1 1.5 × 10^3 CFU/mouse i.p., 5 mg/Kg i.v. twice, 24 and 72 h post-infection, 12 days, 10 mice/group. As to the method:
Neutropenic mice were injected i.p. with a lethal amount of P. aeruginosa PAO1 (1.5 × 10^3 CFU/mouse). Then mice were treated twice i.v. with SET-M33L or SET-M33L-PEG (5 mg/Kg), 24 and 72 hours post-infection. Then animals were monitored for survival for 12 days. Survivals of 60% and 80% were obtained with SET-M33L or SET-M33L-PEG, respectively (Fig. 1). Note that this is a model of acute and rapidly progressive infection, since animals start to show signs of disease within 24 hours and controls died after 40–65 hours. Treatment with the peptides begun 24 h after onset of the infection. The relatively long interval between i.p. inoculation of bacteria and the start of i.v. treatment in animals with suppressed immune systems is a valid indication of the potency of the peptides in vivo.
Animal procedures were approved by the Ethics Committees of the Azienda Ospedaliera Universitaria Senese on November 18, 2010, and of the Italian Ministry of Health on September 21, 2012. Eight-week-old (20 g) BALB/c female mice (Charles River) were used in all experiments. […] All p values were calculated using GraphPad Prism 5.0 software.
In the Pseudomonas model of sepsis[35] animals were rendered neutropenic by i.p. administration of cyclophosphamide (Sigma-Aldrich C7397) at 150 mg/kg (300 μl of a 10 mg/ml solution) 4 days and 1 day before infection. […] Surviving mice were monitored for 12 days. […]

Data set [2] concerns P. aeruginosa PAO1. Kind of data set: Lung infection model in neutropenic BALB/c mice, i.v. treatment, survival. It counts as in vivo, Pseudomonas aeruginosa. The following applies: PAO1 1.5 × 10^3 CFU/mouse i.t., 5 mg/Kg i.v. twice, 1 and 16 h post-infection, 10 days, 10 mice/group. The procedure: Neutropenic mice were injected intra-tracheally (i.t.) with a lethal amount of P. aeruginosa PAO1 (1.5 × 10^3 CFU/mouse). They were then treated twice i.v. 1 and 16 hours post-infection with SET-M33L or SET-M33L-PEG 5 mg/Kg and monitored for survival for 10 days. We obtained 40% and 60% survival with SET-M33L and SET-M33L-PEG, respectively (Fig. 2A).
Animal procedures were approved by the Ethics Committees of the Azienda Ospedaliera Universitaria Senese on November 18, 2010, and of the Italian Ministry of Health on September 21, 2012. Eight-week-old (20 g) BALB/c female mice (Charles River) were used in all experiments. The animals were maintained and handled in accordance with the Guidelines for Accommodation and Care of Animals (European Convention for the Protection of Vertebrate Animals Used for Experimental and Other Scientific Purposes) and internal guidelines. For each experiment the animals were housed in groups of five mice per cage upon arrival and maintained with food and water ad libitum for 5 days before the beginning of treatment. All p values were calculated using GraphPad Prism 5.0 software.
We set up two lung infection models, one for i.v. and the other for intra-tracheal (i.t.) treatment. In the i.v. model, animals were made neutropenic as described in the sepsis model. […] Surviving mice were monitored for 10 days. […]

For another data set, the system named is BALB/c mice. The data set can be described thus: Acute toxicity in mice, single i.v. dose. It counts as in vivo, mouse. As to the method:
As preliminary toxicity evaluation we first compared the acute toxicity of SET-M33L and SET-M33L-PEG with that of colistin. Animals (10 BALB/c mice/group) were injected i.v. with different amounts of SET-M33L, SET-M33L-PEG or colistin, in single dose, in the range 5–40 mg/kg (Fig. 4), and were monitored for 4 days after inoculation of the peptide. […] At 40 mg/Kg SET-M33L and SET-M33L-PEG produced similar toxicity profiles with strong signs of toxicity and 90–100% mortality after 96 hours. Colistin produced strong signs of toxicity already at 10 mg/Kg: 50% mortality immediately after inoculation and 70% mortality after 24 hours. Colistin induced sudden death in 100% of mice at 20 and 40 mg/Kg.
Mice were treated by a single i.v. administration of different amounts (40, 20, 10, 5 mg/Kg) of SET-M33L, SET-M33L-PEG or colistin sulfate (Sigma-Aldrich, C4461). Signs of toxicity were checked four times a day by visual inspection. A toxicity score was assigned for the following signs: wiry coat and poor motility = mild signs; very wiry coat, abundant lachrymation and poor motility even under stimulation = manifest signs. Animals were monitored for 4 days after inoculation of the peptide. Mice were weighed every day from arrival to the last day of the experiment. Moribund animals were killed humanely to avoid unnecessary distress.

Positions of bridges follow the written chain, without caps; N, C: chain ends. Non-standard residues stand in square brackets, D forms with d. Residues, ends and D or L forms follow the SMILES beside them. Chains are numbered I, II in the order given. PEG4 = NCCOCCOCCOCCOCCC(=O)O

`CC[C@H](C)[C@H](NC(=O)[C@H](CCCCN)NC(=O)[C@@H](N)CCCCN)C(=O)N[C@@H](CCCNC(=N)N)C(=O)N[C@H](C(=O)N[C@@H](CCCNC(=N)N)C(=O)N[C@@H](CC(C)C)C(=O)N[C@@H](CO)C(=O)N[C@@H](C)C(=O)NCCCC[C@H](NC(=O)[C@H](C)NC(=O)[C@H](CO)NC(=O)[C@H](CC(C)C)NC(=O)[C@H](CCCNC(=N)N)NC(=O)[C@@H](NC(=O)[C@H](CCCNC(=N)N)NC(=O)[C@@H](NC(=O)[C@H](CCCCN)NC(=O)[C@@H](N)CCCCN)[C@@H](C)CC)C(C)C)C(=O)NCCCC[C@H](NC(=O)[C@H](CCCCNC(=O)[C@H](C)NC(=O)[C@H](CO)NC(=O)[C@H](CC(C)C)NC(=O)[C@H](CCCNC(=N)N)NC(=O)[C@@H](NC(=O)[C@H](CCCNC(=N)N)NC(=O)[C@@H](NC(=O)[C@H](CCCCN)NC(=O)[C@@H](N)CCCCN)[C@@H](C)CC)C(C)C)NC(=O)[C@H](C)NC(=O)[C@H](CO)NC(=O)[C@H](CC(C)C)NC(=O)[C@H](CCCNC(=N)N)NC(=O)[C@@H](NC(=O)[C@H](CCCNC(=N)N)NC(=O)[C@@H](NC(=O)[C@H](CCCCN)NC(=O)[C@@H](N)CCCCN)[C@@H](C)CC)C(C)C)C(=O)NCCOCCOCCOCCOCCC(N)=O)C(C)C` [SET-M33L-PEG] (I: H-KKIRVRLSAKK[PEG4]-NH2 / II: H-KKIRVRLSAK / III: H-KKIRVRLSA / IV: H-KKIRVRLSA; amide I:10-IV:C, I:11-II:C, II:10-III:C; N-terminus assumed): the survival with P. aeruginosa PAO1 [1] is recorded as 80%; with P. aeruginosa PAO1 [2], 60%. The mortality with BALB/c mice (single i.v. dose 40 mg/Kg, after 96 hours) is 90–100%. Moreover, in the data set with BALB/c mice (single i.v. dose up to 20 mg/kg, monitored 4 days, 10 BALB/c mice/group), the “lethality and signs of toxicity” value is “not lethal and no signs of toxicity were observed”.
